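Interpolation was linear, between the two tested concentrations surrounding the appropriate level; five concentrations were tested over 48 hours in 96-well plates. GI50 = concentration required for 50% inhibition of growth.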 Calls of active or inactive are those of the source. No stated cut-off is given here; in the data, active = GI50 up to about 1.1 µM and inactive = higher.
What was measured:
Experiment in all cases: NCI tumour cell line growth inhibition, 48 h
786-0 = system: 786-0
A498 = system: A498
A549 = system: A549
ACHN = system: ACHN
CAKI-1 = system: CAKI-1
CCRF-CEM = system: CCRF-CEM
COLO 205 = system: COLO 205
DLD-1 = system: DLD-1
DMS-114 = system: DMS-114
DMS-273 = system: DMS-273
EKVX = system: EKVX
HCC 2998 = system: HCC 2998
HCT-116 = system: HCT-116
HCT-15 = system: HCT-15
HL-60 = system: HL-60
HOP-62 = system: HOP-62
HT-29 = system: HT-29
IGROV-1 = system: IGROV-1
K562 = system: K562
KM-20L2 = system: KM-20L2
KM12 = system: KM12
LOX IMVI = system: LOX IMVI
LXFL 529 = system: LXFL 529
M14 = system: M14
M19-MEL = system: M19-MEL
MOLT-4 = system: MOLT-4
Malme-3M = system: Malme-3M
NCI-H226 = system: NCI-H226
NCI-H23 = system: NCI-H23
NCI-H460 = system: NCI-H460
NCI-H522 = system: NCI-H522
OVCAR-3 = system: OVCAR-3
OVCAR-4 = system: OVCAR-4
OVCAR-8 = system: OVCAR-8
RPMI-8226 = system: RPMI-8226
SF-295 = system: SF-295
SF-539 = system: SF-539
SK-MEL-2 = system: SK-MEL-2
SK-MEL-5 = system: SK-MEL-5
SN12C = system: SN12C
SNB-19 = system: SNB-19
SNB-75 = system: SNB-75
SR = system: SR
SW-620 = system: SW-620
TK-10 = system: TK-10
UACC-257 = system: UACC-257
UACC-62 = system: UACC-62
UO-31 = system: UO-31
XF498 = system: XF498

Structure (SMILES): Cn1cc(C(=O)C[n+]2ccccc2)c2ccccc21
- GI50 (786-0): > 100 µM (inactive)
- GI50 (A498): 28.9 µM (inactive)
- GI50 (A549): 50.6 µM (inactive)
- GI50 (ACHN): > 100 µM (inactive)
- GI50 (CAKI-1): 30.3 µM (inactive)
- GI50 (CCRF-CEM): 61.9 µM (inactive)
- GI50 (COLO 205): 52.2 µM (inactive)
- GI50 (DLD-1): > 100 µM (inactive)
- GI50 (DMS-114): 49.7 µM (inactive)
- GI50 (DMS-273): 42.3 µM (inactive)
- GI50 (EKVX): 11.9 µM (inactive)
- GI50 (HCC 2998): > 100 µM (inactive)
- GI50 (HCT-116): > 100 µM (inactive)
- GI50 (HCT-15): > 100 µM
- GI50 (HL-60): > 100 µM (inactive)
- GI50 (HOP-62): 83.8 µM (inactive)
- GI50 (HT-29): 48.5 µM (inactive)
- GI50 (IGROV-1): 72.1 µM (inactive)
- GI50 (K562): 33.6 µM (inactive)
- GI50 (KM-20L2): 33 µM (inactive)
- GI50 (KM12): 50.2 µM (inactive)
- GI50 (LOX IMVI): > 100 µM (inactive)
- GI50 (LXFL 529): > 10 µM (inactive)
- GI50 (M14): > 100 µM (inactive)
- GI50 (M19-MEL): 59.8 µM (inactive)
- GI50 (MOLT-4): 54.7 µM (inactive)
- GI50 (Malme-3M): 69.7 µM (inactive)
- GI50 (NCI-H226): 12.5 µM (inactive)
- GI50 (NCI-H23): > 100 µM (inactive)
- GI50 (NCI-H460): > 100 µM (inactive)
- GI50 (NCI-H522): 56 µM (inactive)
- GI50 (OVCAR-3): 20.9 µM (inactive)
- GI50 (OVCAR-4): 46.1 µM (inactive)
- GI50 (OVCAR-8): 58.6 µM (inactive)
- GI50 (RPMI-8226): > 100 µM (inactive)
- GI50 (SF-295): 38.4 µM (inactive)
- GI50 (SF-539): 78.3 µM (inactive)
- GI50 (SK-MEL-2): > 100 µM (inactive)
- GI50 (SK-MEL-5): > 100 µM (inactive)
- GI50 (SN12C): 62.4 µM (inactive)
- GI50 (SNB-19): 52.8 µM (inactive)
- GI50 (SNB-75): 69.2 µM (inactive)
- GI50 (SR): > 100 µM (inactive)
- GI50 (SW-620): > 100 µM (inactive)
- GI50 (TK-10): > 100 µM (inactive)
- GI50 (UACC-257): > 100 µM (inactive)
- GI50 (UACC-62): > 100 µM (inactive)
- GI50 (UO-31): > 100 µM (inactive)
- GI50 (XF498): 86.9 µM (inactive)
